Laboratory results reported in patent publication US7655392B2, “Quenching methods for red blood cell inactivation process” (priority 2004, dated 2010).
Where two headings read alike, the source gives them in different places.

How the values were obtained:
Serratia marcescens = assay type: cell-based
red blood cells = assay type: cell-based
Protocol: In another assay, the rabbit polyclonal sera may be reacted with treated red blood cells. After washing off unbound antibody, a FITC labeled goat anti-rabbit Fab′2 fragment (anti H+L chains, Caltag) is added. The binding of FITC label to the red blood cells correlates with the amount of acridine bound to the red blood cell surface, and is assessed by FACScan™ analysis (Becton, Dickinson and Co., NJ). The relative modification of the red blood cells is determined from the FACScan™ mean fluorescence value.
A 20 mL sample of leukoreduced whole blood (Blood Source, Sacramento, Calif.) was centrifuged at 4,100×g for 5 minutes at room temperature in each of four 50 mL centrifuge tubes. The supernatant was removed from each tube to provide red cell concentrate (RCC). […] For each washed RCC, cells were resuspended in 5 mL of the solution used for washing. This is now referred to as the RBC test sample. […] These samples were incubated for 20 hours at room temperature. After incubation, the RBC were washed in BBS (Blood Bank Saline, 0.9% saline, unbuffered, Fisher Scientific) and were diluted to a final hematocrit of 4%. A 25 μL aliquot of each was mixed with 15 μL of rabbit polyclonal anti-acridine sera diluted 1:100 in BBS and the mixture was incubated at 37° C. for 30 minutes. The cells were subsequently washed with 1.5 mL BBS. After washing was complete, the cells were mixed with 50 μL of FITC labeled goat anti-rabbit Fab′2 fragment (1:64 dilution in BBS) and incubated at 37° C. for 30 minutes. […] Note that the quenching improves as glutathione is neutralized with increasing amounts of sodium hydroxide.
The FACScan analysis of the binding of rabbit anti-acridine sera to treated red cells was used to assess a variety of quenching conditions. […] The tables represent data from two different experiments, each with samples treated under standard conditions or with 20 mM neutralized glutathione. […] The data within an experiment provides the relative efficacy of the various treatments. Because the assay may depend on the lot of red blood cells used, the absolute values of mean fluorescence may vary from one study to the next, such that relative values should only be compared within a given experiment. […] Neutralized glutathione at 20 mM results in close to background levels.
An untreated control sample as well as a standard sample (co-addition of 2 mM acidic glutathione with 0.2 mM PIC-1) were also assessed.
Full units of red cell concentrates (Interstate Blood Bank, Inc., Memphis, Tenn.) were leukoreduced. A volume of 200 mL of this RCC (80% hematocrit) was mixed with 94 mL of Erythrosol or 100 mL of Adsol (Baxter Healthcare Corp., Deerfield, Ill.) as control (unit 1). A volume of 20 mL 8% dextrose was used to dissolve PIC-1 (mg) and acid glutathione (mg) and added to one unit to provide 0.2 mM PIC-1 and 2 mM glutathione (unit 2). […] For the glutathione, 1.2 mL of 10 N NaOH was added (2 equivalents). The PIC-1 was mixed with the unit, followed 1 minute later (unit 3) or 5 minutes later (unit 4) by glutathione. For unit 5, neutralized glutathione was mixed first, followed 10 minutes later by the PIC-1. […] All units were mixed by grasping the ends of the blood bag and mixing in a FIG. 8 motion 30 times. These were then incubated at room temperature for 20 hours total. A compound adsorption device (CAD), comprising a polymeric resin contained within a mesh pouch, was used for all but the control sample. This device is intended to remove residual PIC-1, PIC-1 breakdown products, and glutathione from the samples. Samples were incubated for 8 hours, then transferred to a second blood bag containing the CAD and incubated for an additional 12 hours. Following the room temperature incubation, samples were transferred to a refrigerator (4° C.) and stored up to 43 days.

[1] = 0.2 mM PIC-1+2 mM glutathione, 0.9 eq base, formulated together
[2] = 0.2 mM PIC-1+20 mM glutathione, 0 eq base, formulated together
[3] = 0.2 mM PIC-1+20 mM glutathione, 0.9 eq base, formulated together (PIC-1 precipitated)
[4] = 0.2 mM PIC-1+20 mM glutathione, 1.5 eq base, formulated together (PIC-1 precipitated)
[5] = 0.2 mM PIC-1+20 mM glutathione, 2 eq base, formulated together (PIC-1 precipitated)
[6] = 0.2 mM PIC-1 first, 20 mM glutathione+2 eq base shortly after (sequential)
[7] = Table 2B: 0.2 mM PIC-1, then 20 mM glutathione+2 eq base after 1 min
[8] = Table 2B: 0.2 mM PIC-1, then 20 mM glutathione+2 eq base after 5 min
[9] = Table 2B: 0.2 mM PIC-1, then 20 mM glutathione+2 eq base after 10 min
[10] = Table 2B: 0.2 mM PIC-1, then 20 mM glutathione+2 eq base after 20 min
[11] = Table 2B: 0.2 mM PIC-1 and 2 mM glutathione, 0 eq base, simultaneous
[12] = Table 2B: 0.2 mM PIC-1 and 20 mM glutathione, 0 eq base, simultaneous
[13] = Table 2B: 20 mM glutathione+2 eq base, then 0.2 mM PIC-1 after 1 min
[14] = Table 2B: 20 mM glutathione+2 eq base, then 0.2 mM PIC-1 after 10 min
[15] = Table 5A: 0.2 mM PIC-1, then 20 mM GSH+2 eq base after 1 min
[16] = Table 5A: 10 mM Cys+10 mM GSH, 2 eq base each, then 0.2 mM PIC-1 after 10 min
[17] = Table 5A: 15 mM Cys+5 mM GSH, 2 eq base each, then 0.2 mM PIC-1 after 10 min
[18] = Table 5A: 20 mM Cys+2 eq base, then 0.2 mM PIC-1 after 10 min
[19] = Table 5A: 20 mM GSH+2 eq base, then 0.2 mM PIC-1 after 10 min
[20] = Table 5B: 0.2 mM PIC-1+2 mM GSH, 0 eq base, no delay
[21] = Table 5B: 5 mM Cys+2 eq base, then 0.2 mM PIC-1 after 5 min
[22] = Table 5B: 5 mM Cys+2 eq base, then 0.2 mM PIC-1 after 10 min
[23] = Table 5B: 5 mM Cys+2 eq base, then 0.2 mM PIC-1 after 20 min
[24] = Table 5B: 10 mM Cys+2 eq base, then 0.2 mM PIC-1 after 10 min
[25] = Table 5B: 15 mM Cys+2 eq base, then 0.2 mM PIC-1 after 10 min
[26] = Table 5B: 20 mM Cys+2 eq base, then 0.2 mM PIC-1 after 5 min
[27] = Table 5B: 20 mM Cys+2 eq base, then 0.2 mM PIC-1 after 10 min
[28] = Table 5B: 20 mM GSH+2 eq base, then 0.2 mM PIC-1 after 10 min
[29] = Table 5B: […] Cys+2 eq base, then 0.2 mM PIC-1 after 10 min

SMILES: O=C(CCNc1c2ccccc2nc2ccccc12)OCCN(CCCl)CCCl [PIC-1]
- Log S. marcescens reduction (Serratia marcescens; [1]): 4.27 Log
- Log S. marcescens titer (Serratia marcescens; [1]): 2.8 Log
- Log S. marcescens reduction (Serratia marcescens; [2]): 2.40 Log
- Log S. marcescens titer (Serratia marcescens; [2]): 4.6 Log
- Log S. marcescens reduction (Serratia marcescens; [3]): 2.26 Log
- Log S. marcescens titer (Serratia marcescens; [3]): 4.8 Log
- Log S. marcescens reduction (Serratia marcescens; [4]): 1.66 Log
- Log S. marcescens titer (Serratia marcescens; [4]): 5.4 Log
- Log S. marcescens reduction (Serratia marcescens; [5]): 0.76 Log
- Log S. marcescens titer (Serratia marcescens; [5]): 6.3 Log
- Log S. marcescens reduction (Serratia marcescens; [6]): 3.02 Log
- Log S. marcescens titer (Serratia marcescens; [6]): 4.0 Log
- Log S. marcescens reduction (Serratia marcescens; [7]): 3.36 Log
- Log S. marcescens titer (Serratia marcescens; [7]): 3.40 Log
- Log S. marcescens reduction (Serratia marcescens; [8]): 3.89 Log
- Log S. marcescens titer (Serratia marcescens; [8]): 2.87 Log
- Log S. marcescens reduction (Serratia marcescens; [9]): 4.96 Log
- Log S. marcescens titer (Serratia marcescens; [9]): 1.80 Log
- Log S. marcescens reduction (Serratia marcescens; [10]): 6.76 Log
- Log S. marcescens titer (Serratia marcescens; [10]): 0.00 Log
- Log S. marcescens reduction (Serratia marcescens; [11]): 5.25 Log
- Log S. marcescens titer (Serratia marcescens; [11]): 1.51 Log
- Log S. marcescens reduction (Serratia marcescens; [12]): 0.71 Log
- Log S. marcescens titer (Serratia marcescens; [12]): 6.05 Log
- Log S. marcescens reduction (Serratia marcescens; [13]): 3.66 Log
- Log S. marcescens titer (Serratia marcescens; [13]): 3.10 Log
- Log S. marcescens reduction (Serratia marcescens; [14]): 3.68 Log
- Log S. marcescens titer (Serratia marcescens; [14]): 3.08 Log
- Log S. marcescens reduction (Serratia marcescens; [15]): 2.7 Log
- Log S. marcescens titer (Serratia marcescens; [15]): 4.8 Log
- Log S. marcescens reduction (Serratia marcescens; [16]): 3.0 Log
- Log S. marcescens titer (Serratia marcescens; [16]): 4.5 Log
- Log S. marcescens reduction (Serratia marcescens; [17]): 3.7 Log
- Log S. marcescens titer (Serratia marcescens; [17]): 3.8 Log
- Log S. marcescens reduction (Serratia marcescens; [18]): 3.1 Log
- Log S. marcescens titer (Serratia marcescens; [18]): 4.4 Log
- Log S. marcescens reduction (Serratia marcescens; [19]): 3.4 Log
- Log S. marcescens titer (Serratia marcescens; [19]): 4.1 Log
- Log S. marcescens reduction (Serratia marcescens; [20]): 4.1 Log
- Log S. marcescens titer (Serratia marcescens; [20]): 3.5 Log
- Log S. marcescens reduction (Serratia marcescens; [21]): 3.2 Log
- Log S. marcescens titer (Serratia marcescens; [21]): 4.4 Log
- Log S. marcescens reduction (Serratia marcescens; [22]): 3.2 Log
- Log S. marcescens titer (Serratia marcescens; [22]): 4.4 Log
- Log S. marcescens reduction (Serratia marcescens; [23]): 2.9 Log
- Log S. marcescens titer (Serratia marcescens; [23]): 4.7 Log
- Log S. marcescens reduction (Serratia marcescens; [24]): 2.7 Log
- Log S. marcescens titer (Serratia marcescens; [24]): 4.9 Log
- Log S. marcescens reduction (Serratia marcescens; [25]): 3.1 Log
- Log S. marcescens titer (Serratia marcescens; [25]): 4.5 Log
- Log S. marcescens reduction (Serratia marcescens; [26]): 3.2 Log
- Log S. marcescens titer (Serratia marcescens; [26]): 4.4 Log
- Log S. marcescens reduction (Serratia marcescens; [27]): 3.0 Log
- Log S. marcescens titer (Serratia marcescens; [27]): 4.6 Log
- Log S. marcescens reduction (Serratia marcescens; [28]): 3.2 Log
- Log S. marcescens titer (Serratia marcescens; [28]): 4.4 Log
- Log S. marcescens reduction (Serratia marcescens; [29]): 3.7 Log
- Log S. marcescens titer (Serratia marcescens; [29]): 3.9 Log
- log inactivation (Serratia marcescens; all conditions of Tables 5A, 5B, 5C (cysteine and/or glutathione, 0.2 mM PIC-1)): at least 3 log
- inactivation difference from the standard condition (Serratia marcescens; cysteine or glutathione quenching, Tables 5A-5C): 1-1.5 log
- mean fluorescence (red blood cells; 16C day 0.8, unit 2: standard 0.2 mM PIC-1+2 mM GSH): 284
- mean fluorescence (red blood cells; 16C day 0.8, unit 3: 0.2 mM PIC-1, 1' delay, 20 mM GSH+2 eq base): 20.1
- mean fluorescence (red blood cells; 16C day 0.8, unit 4: 0.2 mM PIC-1, 5' delay, 20 mM GSH+2 eq base): 46.0
- mean fluorescence (red blood cells; 16C day 0.8, unit 5: 20 mM GSH+2 eq base, 10' delay, 0.2 mM PIC-1): 20.0
- mean fluorescence (red blood cells; 16C day 2, unit 2: standard 0.2 mM PIC-1+2 mM GSH): 193.5
- mean fluorescence (red blood cells; 16C day 2, unit 3: 0.2 mM PIC-1, 1' delay, 20 mM GSH+2 eq base): 14.58
- mean fluorescence (red blood cells; 16C day 2, unit 4: 0.2 mM PIC-1, 5' delay, 20 mM GSH+2 eq base): 34.07
- mean fluorescence (red blood cells; 16C day 2, unit 5: 20 mM GSH+2 eq base, 10' delay, 0.2 mM PIC-1): 12.31
- mean fluorescence (red blood cells; 16C day 7, unit 2: standard 0.2 mM PIC-1+2 mM GSH): 142.1
- mean fluorescence (red blood cells; 16C day 7, unit 3: 0.2 mM PIC-1, 1' delay, 20 mM GSH+2 eq base): 4.96
- mean fluorescence (red blood cells; 16C day 7, unit 4: 0.2 mM PIC-1, 5' delay, 20 mM GSH+2 eq base): 18.84
- mean fluorescence (red blood cells; 16C day 7, unit 5: 20 mM GSH+2 eq base, 10' delay, 0.2 mM PIC-1): 5.34
